Assay results: ChEMBL document CHEMBL1764967, “Introduction of aromatic group on 4'-OH of α-GalCer manipulated NKT cell cytokine production” (Bioorg Med Chem, 2011)
Activity calls are given as the source filed them.

What was measured:
[1] = test system: Mus musculus; assay: Immunostimulatory activity in C57BL/6 mouse assessed as INF-gamma level in serum at 10 ug/ml, iv after 2 to 24 hrs by ELISA; assay type: functional, organism-based; conditions: TDE = time-dependent effect
[2] = test system: Mus musculus; assay: Immunostimulatory activity in C57BL/6 mouse assessed as maximum INF-gamma level in serum at 10 ug/ml, iv after 2 hrs by ELISA; assay type: functional, organism-based
[3] = test system: Mus musculus; assay: Immunostimulatory activity in C57BL/6 mouse assessed as IL4 level in serum at 10 ug/ml, iv after 2 to 24 hrs by ELISA; assay type: functional, organism-based; conditions: TDE = time-dependent effect
[4] = species: Mus musculus; assay: Immunostimulatory activity in mouse DN3A4-1.2 cells expressing TCR assessed as IL2 level after 24 hrs by ELISA in presence of mouse CD1d protein; assay type: functional, cell-based
[5] = test system: Mus musculus; assay: Immunostimulatory activity in C57BL/6 mouse assessed as maximum IL4 level in serum at 10 ug/ml, iv after 2 hrs by ELISA; assay type: functional, organism-based
[6] = test system: N38.2H4; assay: Immunostimulatory activity in mouse N38.2H4 cells expressing TCR assessed as IL2 level after 24 by ELISA in presence of mouse CD1d protein; assay type: functional, cell-based
[7] = species: Mus musculus; assay: Immunostimulatory activity in mouse DN3A4-1.4 hybridoma cells expressing TCR assessed as IL2 level after 24 to 48 hrs by ELISA; assay type: functional
[8] = test system: Mus musculus; assay: Immunostimulatory activity in C57BL/6 mouse assessed as maximum IL4 level in serum at 10 ug/ml, iv after 4 hrs by ELISA; assay type: functional, organism-based
[9] = species: Mus musculus; assay: Immunostimulatory activity in mouse DN3A4-1.2 hybridoma cells expressing TCR assessed as IL2 level after 24 to 48 hrs by ELISA; assay type: functional
[10] = species: Mus musculus; assay: Immunostimulatory activity in mouse N38.2H4 hybridoma cells expressing TCR assessed as IL2 level after 24 to 48 hrs by ELISA; assay type: functional
[11] = test system: Splenocyte; assay: Immunostimulatory activity in C57BL/6 mouse Splenocytes assessed as release of IL4 at 1000 ng/ml after 72 hrs by ELISA; assay type: functional, cell-based
[12] = test system: Mus musculus; assay: Immunostimulatory activity in C57BL/6 mouse assessed as maximum INF-gamma level in serum at 10 ug/ml, iv after 12 hrs by ELISA; assay type: functional, organism-based
[13] = test system: Splenocyte; assay: Immunostimulatory activity in C57BL/6 mouse Splenocytes assessed as release of IL4 after 72 hrs by ELISA; assay type: functional, cell-based

Measured: Activity

CCCCCCCCCCCCCCCCCCCCCCCCCC(=O)N[C@@H](CO[C@H]1O[C@H](CO)[C@H](O)[C@H](O)[C@H]1O)[C@H](O)[C@H](O)CCCCCCCCCCCCCC
active: [1] tde | [2] | [3] tde | [4] | [5] | [6]

CCCCCCCCCCCCCCCCCCCCCCCCCC(=O)N[C@@H](CO[C@H]1O[C@H](CO)[C@H](OC(=O)c2ccccc2)[C@H](O)[C@H]1O)[C@H](O)[C@H](O)CCCCCCCCCCCCCC
active: [1] tde | [3] tde | [4] | [6] | [7] | [8] | [9] | [10] | [11]

CCCCCCCCCCCCCCCCCCCCCCCCCC(=O)N[C@@H](CO[C@H]1O[C@H](CO)[C@H](OCCc2ccccc2)[C@H](O)[C@H]1O)[C@H](O)[C@H](O)CCCCCCCCCCCCCC
active: [1] tde | [12] | [3] tde | [7] | [8] | [9] | [10] | [11]

CCCCCCCCCCCCCCCCCCCCCCCCCC(=O)N[C@@H](CO[C@H]1O[C@H](CO)[C@H](OCCCc2ccccc2)[C@H](O)[C@H]1O)[C@H](O)[C@H](O)CCCCCCCCCCCCCC
active: [13] | [1] tde | [2] | [12] | [3] tde | [4] | [5] | [6] | [7] | [9] | [10]
